pIC50: −log10 of the molar value.

Test [1] deals with T1, Epidermal growth factor receptor (Homo sapiens, UniProt P00533). Nature of the test: Inhibition of phosphorylation of phospholipase C gamma1 by Epidermal growth factor receptor, from human A431 carcinoma cell vesicles.
The target of test [2] is T1, Epidermal growth factor receptor. Nature of the test: Tested for ability to inhibit autophosphorylation of the Epidermal growth factor receptor in human epidermoid carcinoma cells.
Test [3] has the same target. Nature of the test: Tested for inhibition of PLC gamma-derived substrate in Epidermal growth factor receptor stimulated A431 cells.
Test [4] shares this target. Description: Tested for inhibition of autophosphorylation in Epidermal growth factor receptor stimulated A431 cells.

T1 sequence (P00533 whole entry): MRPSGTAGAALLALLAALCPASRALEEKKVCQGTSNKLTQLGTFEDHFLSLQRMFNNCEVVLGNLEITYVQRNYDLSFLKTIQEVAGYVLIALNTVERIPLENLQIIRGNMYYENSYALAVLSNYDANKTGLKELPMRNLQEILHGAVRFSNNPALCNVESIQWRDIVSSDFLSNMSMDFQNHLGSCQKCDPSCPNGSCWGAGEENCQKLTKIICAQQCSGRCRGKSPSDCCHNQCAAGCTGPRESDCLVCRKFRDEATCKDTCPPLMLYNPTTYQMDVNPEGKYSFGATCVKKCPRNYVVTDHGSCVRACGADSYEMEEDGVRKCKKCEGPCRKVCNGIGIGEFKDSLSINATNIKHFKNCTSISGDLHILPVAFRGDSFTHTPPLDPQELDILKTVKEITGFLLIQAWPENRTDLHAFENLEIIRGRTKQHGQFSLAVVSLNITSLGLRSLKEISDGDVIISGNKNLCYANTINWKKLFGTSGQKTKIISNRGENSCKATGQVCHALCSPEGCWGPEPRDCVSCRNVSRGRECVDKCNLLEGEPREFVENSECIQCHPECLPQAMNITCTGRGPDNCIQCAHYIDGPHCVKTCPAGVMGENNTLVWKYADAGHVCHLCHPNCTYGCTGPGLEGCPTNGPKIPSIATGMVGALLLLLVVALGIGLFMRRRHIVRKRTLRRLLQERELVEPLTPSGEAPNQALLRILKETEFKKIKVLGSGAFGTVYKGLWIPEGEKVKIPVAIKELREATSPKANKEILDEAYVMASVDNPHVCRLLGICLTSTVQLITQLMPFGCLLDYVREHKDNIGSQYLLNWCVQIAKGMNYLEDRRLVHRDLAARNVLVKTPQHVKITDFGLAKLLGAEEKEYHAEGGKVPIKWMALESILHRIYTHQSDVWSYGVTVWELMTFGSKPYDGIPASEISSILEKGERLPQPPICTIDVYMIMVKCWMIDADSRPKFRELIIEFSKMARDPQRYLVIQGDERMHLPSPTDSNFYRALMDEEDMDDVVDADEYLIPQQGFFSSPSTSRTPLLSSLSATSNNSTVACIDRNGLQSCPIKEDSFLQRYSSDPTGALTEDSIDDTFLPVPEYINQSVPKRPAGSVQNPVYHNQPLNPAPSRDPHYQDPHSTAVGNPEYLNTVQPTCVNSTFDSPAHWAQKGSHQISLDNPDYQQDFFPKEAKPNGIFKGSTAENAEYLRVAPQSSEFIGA

For the molecule `Brc1cccc(Nc2ncnc3cnc(NCCN4CCOCC4)nc23)c1`, the negative-log IC50 (pIC50) (as a rule, the IC50 on a negative log10 scale, so that one unit is a factor of ten) in test [1] is 9.09; in test [2], 8.51. In test [1], `Cc1cccc(Nc2ncnc3cnc(N)nc23)c1` had a negative-log IC50 (pIC50) of 7.77. As for `CNc1ncc2ncnc(Nc3cccc(Br)c3)c2n1`, the negative-log IC50 (pIC50) was 9.12 in test [1] and 7.52 in test [2]. Turning to `Cc1cccc(Nc2ncnc3cnc(NCCN4CCOCC4)nc23)c1`, the negative-log IC50 (pIC50) in test [1] was 8.64. As for `Cc1cccc(Nc2ncnc3cnc(NCCc4c[nH]cn4)nc23)c1`, the pIC50 in test [1] is 8.52. The pIC50 values of the last two molecules are within 0.2 log units of each other. Still for that read-out and setting: next, `Clc1ncc2ncnc(Nc3ccccc3)c2n1`: 5.59. `CNc1ccc2ncnc(Nc3cccc(Br)c3)c2c1` showed a pIC50 in test [3] of 7.96. Turning to `Brc1cccc(Nc2ncnc3cnc(NCCCn4ccnc4)nc23)c1`, in test [1], the pIC50 is 8.64. Same read-out and setting: the result for `COc1ncc2ncnc(Nc3cccc(Br)c3)c2n1` reads 8.42; that for `Cc1cccc(Nc2ncnc3cnc(Cl)nc23)c1`, 6.42. The molecule `Cc1cccc(Nc2ncnc3cnc(N(C)C)nc23)c1` gave a negative logarithm of the IC50 (pIC50) in test [1] of 8.40. The same measure, in the same setting: next, `CNc1ncc2ncnc(Nc3ccccc3)c2n1`: 7.89; `Clc1ncc2ncnc(Nc3cccc(Br)c3)c2n1`: 7.09. As to `Brc1cccc(Nc2ncnc3cnc(NCCc4c[nH]cn4)nc23)c1`, the values for the negative logarithm of the IC50 (pIC50) in test [1] and in test [2] were 9.60 and 8.29, respectively. Regarding `CN(C)c1cc2c(Nc3cccc(Br)c3)ncnc2cn1`, the results for the negative-log IC50 (pIC50) in test [3] and in test [4] were 8.59 and 7.92, respectively. Consider `Nc1ncc2ncnc(Nc3cccc(Br)c3)c2n1`, for which the pIC50 in test [1] is 8.82. On the same count and under the same terms, next, `CN(C)CCNc1ncc2ncnc(Nc3cccc(Br)c3)c2n1`: 7.46.

The values above are taken from ChEMBL document CHEMBL1130057, “Tyrosine kinase inhibitors. 12. Synthesis and structure-activity relationships for 6-substituted 4-(phenylamino)pyrimido[5,4-d]pyrimidines designed as inhibitors of the epidermal growth factor receptor” (J Med Chem, 1997).
